Structures can show the parent of a compound that is named as a salt. Where two headings read alike, the source gives them in different places.

For data set [1] the following is noted: state of the art; cited from earlier work.
For data set [2] the following is noted: long-term therapy, state of the art; cited from earlier work.
For data set [3] the following is noted: cited from earlier work.
Data set [4] relates to mast cells. The settings on record: British Pat. No. 1,144,905; cited from earlier work.
Data set [5] relates to histamine. As to the kind of experiment: Antagonistic action towards histamine: inhibition of histamine-induced bronchospasm in anesthetized guinea pigs (Konzett-Rössler). The format is in vivo, guinea pig. Conditions: Cavia porcellus, iv, read-out: Inhibitory action towards histamine (ED50). The protocol:
(§1) 1. Antagonistic action towards the allergy mediators (on anesthetized guinea pigs)
(§2) The test substances were administered intravenously in aqueous solution injected in a volume of 1 ml/kg.

Data set [6] concerns bradykinin. As to the kind of experiment: Antagonistic action towards bradykinin: inhibition of bradykinin-induced bronchospasm in anesthetized guinea pigs (Konzett-Rössler). Format: in vivo, guinea pig. Conditions: Cavia porcellus, iv, read-out: Inhibitory action towards bradykinin (ED50). As for the experimental part:
as §1, §2

The nature of data set [7]: Acute toxicity, mortality within 7 days after single i.p. administration to NMRI mice. Conditions: in vivo, ip, mouse i.p. As for the experimental part:
The LD50 values were determined by the standard method of the mortality occurring within 7 days after a single intraperitoneal (i.p.) administration to NMRI mice (NMRI=Naval Medical Research Institute).

Data set [8] deals with mast cells. As to the kind of experiment: Passive cutaneous anaphylaxis (PCA) in the rat, inhibition of mediator release (protective effect on mast cells). The format is in vivo. Conditions: Mast cell; for inhibition in vivo at 25 mg/kg: oral dose 25 mg/kg; for inhibition in vivo at 50 mg/kg: oral dose 50 mg/kg. The text has this:
(a) Passive cutaneous anaphylaxis (PCA) in the rat (PCA test) Passive cutaneous anaphylaxis is an IgE-mediated allergy of the immediate type (type I). In this model, antibodies bound to mast cells and basophilic granulocytes react with an intravenously administered antigen with release of excessive amount of the allergy mediators. The histamine which is released during this can be visualized by simultaneous application of Evans blue to the shaven flanks of the rats. Photometric evaluation of the color intensity was used to determine, by means of the percentage inhibition of mediator release compared with untreated control animals, the protective effect on mast cells of the compound according to the invention after oral administration.

For data set [9], the system named is rat peritoneal mast cells. The data set is described as follows: Histamine release from isolated rat mast cells induced by calcium ionophore A 23 187. The format is cell-based. The settings on record: Mast cell, 0.25 h, 15 min incubation, A 23 187 10^-6 g/ml, read-out: Inhibitory action in the Ca ionophore test IC50. As for the experimental part:
(b) Histamine release from isolated rat mast celss induced by calcium ionophore A 23 187 […] […] For this purpose, 10^4 cells were suspended in Clicks/RPMI (50:50, vol.; supplied by Serva, Heidelberg) tissue culture medium, incubated with the test substance for 15 minutes, and then treated with calcium ionophore A 23 187 at a concentration of 10^-6 g/ml. The released histamine was determined by high-pressure liquid chromatography (HPLC). The measure used for the inhibitory action was the IC50 which represents the molar concentration (mol/l) at which the induced histamine release was decreased to one half that of cells which had not been pretreated with a product. In this context, IC50 values above 10^-5 mol/l are regarded as therapeutically irrelevant.

Data set [10] concerns asthma induced by histamine. As to the kind of experiment: Inhibition by inhalation of allergic asthma induced by histamine in conscious guinea pigs. Format: in vivo, guinea pig. The settings on record: 0.3% strength aerosol.
Data set [11] relates to platelet activating factor (PAF). The data set is described as follows: Antagonism of PAF-induced bronchospasm in anesthetized rats. The format is in vivo, rat. Conditions: for action on PAF / PAF-induced bronchospasm (in words): PAF test. The protocol: (§3) The compounds of the formula I and their salts additionally show a pronounced inhibitory action on platelet activating factor (PAF) and the leukotrienes, which are likewise released as spasmogenic mediators from the mast cells during the course of the immediate anaphylactic reaction. It was possible to antagonize the bronchospasm induced in anesthetized rats by administration of PAF by, for example, intravenous administration of the compound of Example 3 with a ED50 of 1-3 mg/kg. The said products of the state of the art, such as oxatomide, ketotiphen and terfenadine, have no action in this test. The contractions induced by calcium ionophore A 23 187 in isolated strips of lung and the isolated trachea of guinea pigs were inhibited by, for example, the compound of Example 3 with an IC50 of 0.1-0.3 μg/ml. Since calcium ionophore A 23 187 stimulates 5-lipoxygenase and thus promotes the formation of spasmogenic leukotrienes, a possible interpretation of the result of this experiment is that the compounds according to the invention are potent leukotriene inhibitors.

In data set [12] the test system is isolated strips of lung and the isolated trachea of guinea pigs. The data set is described as follows: Inhibition of contractions induced by calcium ionophore A 23 187 in isolated strips of lung and isolated trachea of guinea pigs. The settings on record: guinea pig. The protocol: as §3
Data set [13] deals with leukotriene D4. As to the kind of experiment: Inhibition of leukotriene D4-induced spasm in isolated guinea pig trachea. The settings on record: leukotriene D4 10 pg/ml.
In data set [14] the test system is airway obstruction induced by histamine aerosol. As to the kind of experiment: Plethysmographic investigation on conscious guinea pigs with airway obstruction induced by inhalation of histamine aerosol. The settings on record: oral, 0.3% strength histamine aerosol; for ED50: Cavia porcellus. Format: in vivo, guinea pig.
Data set [15] is described as follows: Normal weight gain of rats in a subchronic 14-day experiment. Format: in vivo, rat. The settings on record: high oral doses. The text has this:
Finally, the compound of Example 3 had no effect, even at high oral doses, on the normal weight gain of rats in a subchronic 14-day experiment. It is evident from this that the compounds of the formula I have no appetite-stimulating action in contrast to many other antihistamines.

A short description of data set [16]: Anticholinergic action in the Konzett-Rössler model. Format: in vivo, guinea pig.
Data set [17] relates to spontaneous motility of the mouse. The data set is described as follows: Spontaneous motility of the mouse (central sedation). The format is in vivo. The settings on record: oral, 1 mg/kg.
Data set [18] concerns histamine and leukotrienes. Conditions: state of the art; cited from earlier work.
The conditions of data set [19]: state of the art; cited from earlier work. This is another data set of the same source.
The mark [20] stands for this setting: anesthetized guinea pigs, dose reducing induced spasm to one half.

For the compound `COc1ccc(CCN2CCC(Nc3nc4ccccc4n3Cc3ccc(F)cc3)CC2)cc1` [ASTEMIZOLE], in [1], the solubility in water result is on record as “insolubility in water”. Further, the weight gain result in data set [2] is “undesired weight gain”. Also, the sedation entry in data set [3] (side effect, state of the art) is listed as “no sedative side effect”.

On to `O=C(O)c1cc(=O)c2c(OCC(O)COc3cccc4oc(C(=O)O)cc(=O)c34)cccc2o1` [CHROMOGLICIC ACID], for which, in [4], the stabilizing mast cells entry is reported as “stabilizing mast cells”.

On to `Cc1cc(NCCN2CCN(C(c3ccccc3)c3ccccc3)CC2)c([N+](=O)[O-])c(C)n1.Cl.Cl.Cl` [Example 3, 2,6-dimethyl-3-nitro-4-[(2-{4-diphenylmethyl-1-piperazinyl}ethyl)amino]pyridine trihydrochloride], for which the ED50 was 0.3 mg/kg in data set [5] (setting [20]); 0.15 mg/kg in data set [6] (setting [20]); 1 to 3 mg/kg in [11] (Rattus norvegicus, Platelet, intravenous, anesthetized rats); 3.15 mg/kg in data set [14]. For the same compound, in data set [7], the LD50 at 168 h is 300 to 600 mg/kg. This compound showed an inhibition in vivo at 12.5 mg/kg in [8] (oral dose 12.5 mg/kg) of 26%. In [8], this compound yielded an inhibition in vivo at 25 mg/kg of 61%. Besides, in data set [8], at 50 mg/kg the inhibition in vivo was 85%. For the same compound, the IC50 in [9] is 10 nM. For the same compound, the “suppression of experimentally induced asthma attacks” value in [10] is “substantial suppression”. Besides, the “IC50, contractions induced by calcium ionophore A 23 187” value in data set [12] fell in the range of 0.1 to 0.3 µg/mL. For the same compound, the “concentration inhibiting leukotriene D4-induced spasm by 50%” value in data set [13] lay within 3 to 6 µg/mL. Besides, the “time after administration to maximum effect” value in [14] is 30 min. Further, in data set [15], the “effect on normal weight gain” value is reported as “no effect”.

`Cc1cc(NCCN2CCN(C(c3ccccc3)c3ccccc3)CC2)c(N)c(C)n1.Cl.Cl.Cl.O.O` [Example 4, 3-amino-2,6-dimethyl-4-[(2-{4-diphenylmethyl-1-piperazinyl}ethyl)amino]pyridine trihydrochloride dihydrate] registered an inhibition in vivo at 50 mg/kg in data set [8] of 73%. Also, the IC50 in data set [9] was found to be 50 nM. In addition, the anticholinergic action result in data set [16] is listed as “strong anticholinergic action”.

With `Cc1cc(NCCN2CCN(C(c3ccccc3)c3ccccc3)CC2)c(C(=O)O)c(C)n1.Cl.Cl.Cl.O.O` [Example 5, 2,6-dimethyl-4-[(2-{4-diphenylmethyl-1-piperazinyl}-ethyl)amino]pyridine-3-carboxylic acid trihydrochloride dihydrate], the ED50 in [5] was 1 to 3 mg/kg; in data set [6], 3 mg/kg. The compound further had an LD50 at 168 h in [7] of 300 to 600 mg/kg. In [8], this compound gave an inhibition in vivo at 50 mg/kg of 91%. In addition, the IC50 in [9] is 100 nM. In data set [16], the anticholinergic action result is “strong anticholinergic action”.

With `Cc1cc(NCCN2CCN(C(c3ccc(F)cc3)c3ccc(F)cc3)CC2)c([N+](=O)[O-])c(C)n1` [Example 15], the ED50 in [5] (setting [20]) fell in the range of 1 to 3 mg/kg; in data set [6] (setting [20]), 3 to 6 mg/kg. The compound further returned an LD50 at 168 h in data set [7] of 300 to 600 mg/kg. This compound also gave an inhibition in vivo at 50 mg/kg in data set [8] of 59%. Moreover, the IC50 in [9] is 100 nM.

In the case of `Cc1cc(NCCN2CCN(C(c3ccncc3)c3ccc(Cl)cc3)CC2)c([N+](=O)[O-])c(C)n1` (stereo not drawn) [Example 16], the ED50 in data set [5] (setting [20]) was found to be 1 mg/kg. Further, the ED50 in data set [6] (setting [20]) worked out at 1 mg/kg. In addition, the LD50 at 168 h in data set [7] was 300 to 600 mg/kg. In addition, in [8], the inhibition in vivo at 25 mg/kg worked out at 46% and 50 mg/kg produced 75% inhibition in vivo. Further, in data set [9], the IC50 is 100 nM.

Consider `Cc1cc(NCCN2CCC(C(O)(c3ccccc3)c3ccccc3)CC2)c([N+](=O)[O-])c(C)n1` [Example 17, 4-[(2-{4-hydroxy(diphenyl)methyl-1-piperidyl}ethyl)amino]-2,6-dimethyl-3-nitropyridine dihydrochloride], for which the ED50 is 0.3 mg/kg in data set [5] (setting [20]) and 3 to 10 mg/kg in [6] (setting [20]). Further, the LD50 at 168 h in [7] is 75 to 150 mg/kg. Further, the inhibition in vivo at 50 mg/kg in data set [8] stood at 91%. Moreover, in [9], the IC50 is under 10 nM.

As to `CN1CCC(=C2c3ccccc3CC(=O)c3sccc32)CC1` [ketotifen], the “action on PAF / PAF-induced bronchospasm (in words)” value in data set [11] is on record as “no action”. In addition, the “reduction in the spontaneous motility” value in [17] is recorded as “significant”. Besides, the “antagonistic properties for histamine and leukotrienes” value in data set [18] was “antagonistic properties for histamine and leukotrienes”. The sedation result in data set [3] (side effect, state of the art) is on record as “pronounced sedation”.

Regarding `O=c1[nH]c2ccccc2n1CCCN1CCN(C(c2ccccc2)c2ccccc2)CC1` [oxatomide], in [11], the “action on PAF / PAF-induced bronchospasm (in words)” value is “no action”. Moreover, in [14], the ED50 is 25 mg/kg and the “time after administration to maximum effect” value came to 90 min. Besides, the onset of action result in [19] is “does not exert its action until several days have passed”. The “antagonistic properties for histamine and leukotrienes” value in [18] is “antagonistic properties for histamine and leukotrienes”. For the same compound, the sedation result in data set [3] (side effect, state of the art) is recorded as “pronounced sedation”.

Consider `CC(C)(C)c1ccc(C(O)CCCN2CCC(C(O)(c3ccccc3)c3ccccc3)CC2)cc1` (stereo not drawn) [terfenadine], for which, in data set [11], the “action on PAF / PAF-induced bronchospasm (in words)” value is on record as “no action”. Further, the solubility in water result in data set [1] was “insolubility in water”. Moreover, in data set [2], the weight gain result was “undesired weight gain”. In addition, in data set [3] (in vivo), the sedation entry was “no sedative side effect”.

One may read the ED50 as the dose at which the effect has come halfway, by size or by number of responders. As a reminder, the LD50 is the dose expected to kill half of the subjects tested. What is called inhibition in vivo is the change of the read-out against control, counted positive when it falls. A lower inhibition in vivo goes with a weak effect. For orientation: IC50 means the concentration at which inhibition is half-maximal.
